Measurements taken from patent US20060153933A1 (priority 2002, published 2006).
Several values for one entry are separate records, joined by “and”; a condition that tells them apart may be missing. Identical values can stand only once. Like-named read-outs stand apart in the source and are kept apart here.

Assays:
Format in all cases: in vivo
[1] = system: Phytophthora infestans (PHYTIN); details: 1DC
[2] = system: Plasmopara viticola (PLASVI); experiment: whole plant or invertebrate; details: for pest or weed control at 1.85 ppm: 1.85 ppm alone; for pest or weed control at 5.56 ppm: 5.56 ppm alone
[3] = system: Plasmopara viticola (PLASVI)
[4] = system: Phytophthora infestans (PHYTIN); experiment: whole plant or invertebrate; details: for pest or weed control at 1.85 ppm: read-out: % Disease Control (observed); for pest or weed control at 0.62 ppm: 0.62 ppm alone; for pest or weed control at 1.9 ppm: 1.90 ppm alone; for pest or weed control at 5.56 ppm: 5.56 ppm alone
[5] = PLASVI 3DP, applied alone at 1.1 ppm
[6] = PHYTIN 3DP, applied alone at 1.1 ppm
[7] = Plasmopara viticola, 72 h, read-out: % Disease Control (observed), 3DP
[8] = Phytophthora infestans, 72 h, read-out: % Disease Control (observed), 3DP
[9] = Phytophthora infestans, 72 h, read-out: % Disease Control (observed), 3DP, 0.60 ppm alone
[10] = Plasmopara viticola, 24 h, read-out: % Disease Control (observed), 1DP
[11] = Plasmopara viticola, 24 h, read-out: % Disease Control (observed), 1DP, Table 14
[12] = Plasmopara viticola, 48 h, read-out: % Disease Control (observed), 2DP
[13] = Plasmopara viticola, 168 h, read-out: % Disease Control (observed), 7DP
[14] = Phytophthora infestans, 48 h, read-out: % Disease Control (observed), 2DP

## CCNC(=O)NC(=O)/C(C#N)=N/OC [Cymoxanil, cymoxanil]
[1]; 16.7 ppm alone
  % Disease Control (Observed): 49.1%
[2]; [5]
  % Disease Control (Observed): 17.5%
[3]; 1DC, 5.56 ppm alone
  % Disease Control (Observed): 10.5%
[3]; 1DC, 16.70 ppm alone
  % Disease Control (Observed): 35.1%
[4]; [6]
  % Disease Control (Observed): 1.8%

## COCC(=O)N(c1c(C)cccc1C)[C@H](C)C(=O)OC [Mefenoxam, mefenoxam]
[1]; 1.85 ppm alone
  % Disease Control (Observed): 56.1%
[2]; 1DP, 0.21 ppm alone
  % Disease Control (Observed): 33.3%
[2]; 1DP, 0.62 ppm alone
  % Disease Control (Observed): 82.5%
[2]; PLASVI 2DP, applied alone at 11.1 ppm
  % Disease Control (Observed): 38.6%
[2]; PLASVI 2DP, applied alone at 33.3 ppm
  % Disease Control (Observed): 66.7%
[3]; in vivo
  % Disease Control (Observed): 94.7%
[4]; 1DP, 0.60 ppm alone
  % Disease Control (Observed): 12.3%
[4]; PHYTIN 2DP, applied alone at 3.7 ppm
  % Disease Control (Observed): 12.3%
[4]; PHYTIN 2DP, applied alone at 11.1 ppm
  % Disease Control (Observed): 17.5%

## COc1ccc(C(=CC(=O)N2CCOCC2)c2ccc(Cl)cc2)cc1OC [Dimethomorph, dimethomorph]
[1]; 5.56 ppm alone
  % Disease Control (Observed): 0.0%
[1]; 16.70 ppm alone
  % Disease Control (Observed): 29.8%
[1]; 50.00 ppm alone
  % Disease Control (Observed): 33.3%
[2]; PLASVI 3DP, applied alone at 0.5 ppm
  % Disease Control (Observed): 3.5%
[2]; PLASVI 3DP, applied alone at 1.4 ppm
  % Disease Control (Observed): 22.8%
[2]; [7]
  pest or weed control at 1.85 ppm: 5.3%
  pest or weed control at 5.56 ppm: 63.2%
[3]; 1DC, 5.56 ppm alone
  % Disease Control (Observed): 8.8%
[4]; PHYTIN 3DP, applied alone at 1.4 ppm
  % Disease Control (Observed): 3.5%
[4]; Phytophthora infestans, 72 h
  pest or weed control at 1.85 ppm: 12.3%
[4]; [8]
  pest or weed control at 0.62 ppm: 0%

## Cc1cccc(C)c1N(C(=O)CCl)C1CCOC1=O (centres unmarked) [Ofurace, ofurace]
[1]; 1.90 ppm alone
  % Disease Control (Observed): 12.3%
[1]; 5.60 ppm alone
  % Disease Control (Observed): 61.0%
[3]; 1DC, 0.60 ppm alone
  % Disease Control (Observed): 21.1%
[4]; [9]
  pest or weed control at 0.6 ppm: 0%
[4]; [8]
  pest or weed control at 1.9 ppm: 0%

## CC[C@H](CS(=O)(=O)C(C)c1ccc(C#N)cc1)NC(=O)Oc1ccc(F)cc1 (stereo partly drawn) [Formula III, 4-fluorophenyl(1S)-1-({[(1R,S)-(4-cyanophenyl)ethyl]sulfonyl}methyl)-propylcarbamate]
[1]; 0.62 ppm alone
  % Disease Control (Observed): 0.0%
[1]; 0.90 ppm alone
  % Disease Control (Observed): 0.0%
[1]; 1.85 ppm alone
  % Disease Control (Observed): 35.1%
[1]; 1.90 ppm alone
  % Disease Control (Observed): 21.1%
[1]; 5.56 ppm alone
  % Disease Control (Observed): 5.3%
[1]; 8.30 ppm alone
  % Disease Control (Observed): 8.8%
[1]; 16.70 ppm alone
  % Disease Control (Observed): 31.6%
[2]; 1DP, 0.20 ppm alone
  % Disease Control (Observed): 8.8%
[2]; 1DP, 0.67 ppm alone
  % Disease Control (Observed): 49.1%
[2]; 4DP, 1.90 ppm alone
  % Disease Control (Observed): 26.30%
[2]; PLASVI 2DP, applied alone at 0.4 ppm
  % Disease Control (Observed): 8.8%
[2]; PLASVI 2DP, applied alone at 1.1 ppm
  % Disease Control (Observed): 22.8%
[2]; PLASVI 2DP, applied alone at 1.85 ppm
  % Disease Control (Observed): 7.0%
[2]; PLASVI 2DP, applied alone at 3.3 ppm
  % Disease Control (Observed): 42.1%
[2]; PLASVI 2DP, applied alone at 5.56 ppm
  % Disease Control (Observed): 19.3%
[2]; PLASVI 3DP, applied alone at 0.4 ppm
  % Disease Control (Observed): 1.8%
[2]; [5]
  % Disease Control (Observed): 12.3%
[2]; PLASVI 3DP, applied alone at 5.56 ppm
  % Disease Control (Observed): 31.6%
[2]; PLASVI 6DP, applied alone at 3.3 ppm
  % Disease Control (Observed): 12.3%
[2]; Plasmopara viticola, 24 h, read-out: % Disease Control (observed), 1DP, 0.20 ppm alone
  pest or weed control at 0.2 ppm: 1.8%
[2]; Plasmopara viticola, 24 h, read-out: % Disease Control (observed), 1DP, 0.21 ppm alone
  pest or weed control at 0.21 ppm: 14%
[2]; Plasmopara viticola, 24 h, read-out: % Disease Control (observed), 1DP, 0.62 ppm alone
  pest or weed control at 0.62 ppm: 17.5%
[2]; [10]
  pest or weed control at 1.85 ppm: 71.9%
  pest or weed control at 5.56 ppm: 78.9%
[2]; [11]
  pest or weed control at 1.85 ppm: 24.6%
  pest or weed control at 5.56 ppm: 78.9%
[2]; Plasmopara viticola, 48 h, read-out: % Disease Control (observed), 2DP, 0.62 ppm alone
  pest or weed control at 0.62 ppm: 1.8%
[2]; [12]
  pest or weed control at 1.85 ppm: 15.8%
  pest or weed control at 5.56 ppm: 56.1%
[2]; Plasmopara viticola, 72 h, read-out: % Disease Control (observed), 3DP, 0.21 ppm alone
  pest or weed control at 0.21 ppm: 0%
[2]; Plasmopara viticola, 72 h, read-out: % Disease Control (observed), 3DP, 0.30 ppm alone
  pest or weed control at 0.3 ppm: 0%
[2]; [7]
  pest or weed control at 5.56 ppm: 40.4%
[2]; [13]
  pest or weed control at 1.85 ppm: 14%
  pest or weed control at 5.56 ppm: 52.6%
[3]; 1DC, 0.60 ppm alone
  % Disease Control (Observed): 5.3%
[3]; 1DC, 0.90 ppm alone
  % Disease Control (Observed): 0.0%
[3]; 1DC, 1.85 ppm alone
  % Disease Control (Observed): 17.5%
[3]; 1DC, 2.80 ppm alone
  % Disease Control (Observed): 8.8% and 16.0%
[3]; 1DC, 5.56 ppm alone
  % Disease Control (Observed): 17.5%
[3]; 1DC, 16.70 ppm alone
  % Disease Control (Observed): 45.6%
[4]; 4DP, 0.60 ppm alone
  % Disease Control (Observed): 15.8%
[4]; 4DP, 2.80 ppm alone
  % Disease Control (Observed): 34.2%
[4]; 4DP, 5.60 ppm alone
  % Disease Control (Observed): 21.10%
[4]; PHYTIN 2DP, applied alone at 0.4 ppm
  % Disease Control (Observed): 5.3%
[4]; PHYTIN 2DP, applied alone at 1.1 ppm
  % Disease Control (Observed): 15.8%
[4]; PHYTIN 2DP, applied alone at 5.56 ppm
  % Disease Control (Observed): 12.3%
[4]; PHYTIN 3DP, applied alone at 0.62 ppm
  % Disease Control (Observed): 3.5%
[4]; [6]
  % Disease Control (Observed): 12.3%
[4]; PHYTIN 6DP, applied alone at 1.1 ppm
  % Disease Control (Observed): 3.5%
[4]; PHYTIN 6DP, applied alone at 3.3 ppm
  % Disease Control (Observed): 33.3%
[4]; Phytophthora infestans, 24 h, read-out: % Disease Control (observed), 1DP, 0.60 ppm alone
  pest or weed control at 0.6 ppm: 3.5%
[4]; Phytophthora infestans, 24 h, read-out: % Disease Control (observed), 1DP
  pest or weed control at 1.9 ppm: 78.6%
[4]; [14]
  pest or weed control at 0.62 ppm: 8.8%
  pest or weed control at 5.56 ppm: 12.3%
[4]; Phytophthora infestans, 72 h, read-out: % Disease Control (observed), 3DP, 0.21 ppm alone
  pest or weed control at 0.21 ppm: 0%
[4]; [9]
  pest or weed control at 0.6 ppm: 73.7%
[4]; Phytophthora infestans, 72 h, read-out: % Disease Control (observed), 3DP, 0.90 ppm alone
  pest or weed control at 0.9 ppm: 1.8%
[4]; Phytophthora infestans, 72 h, read-out: % Disease Control (observed), 3DP, 2.80 ppm alone
  pest or weed control at 2.8 ppm: 47.4%
[4]; [8]
  pest or weed control at 5.56 ppm: 57.9%
[4]; Phytophthora infestans, 72 h, read-out: % Disease Control (observed), Table 10, PHYTIN (3DP) as printed
  pest or weed control at 5.56 ppm: 31.6%
[4]; Phytophthora infestans, 96 h
  pest or weed control at 1.85 ppm: 38.6%
[4]; in vivo
  % Disease Control (Observed): 26.3%
